Laboratory results from the supplement of paper PMC10307832.

What was measured:
Assay in all cases: relative viability (nuclei count vs DMSO), 5 days (fraction); higher = more cells survive
Carboplatin + Phenformin = compound: C1CC(C1)(C(=O)O)C(=O)O.[NH2-].[NH2-].[Pt+2] [Carboplatin] + N=C(N)NC(=N)NCCc1ccccc1 [Phenformin] (partner 250 µM)
Summary of the method: (§1)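 The day after seeding in 1536-well plates, lung cancer cell lines were treated by pin tool with a single drug, or with a fixed anchor-drug dose together with five library-drug doses (not always all listed) in √10 steps. After 5 days, a combined fix-and-stain solution (final 0.05% Triton X-100, 1% formaldehyde, 1 ug/ml Hoechst) was added. Nuclei counted on 4× images gave relative viability as treated counts over vehicle counts, reported as the median of duplicate plates.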

MLN4924 + Tozasertib = compound: NS(=O)(=O)OC[C@@H]1C[C@@H](n2ccc3c(N[C@H]4CCc5ccccc54)ncnc32)C[C@@H]1O [MLN4924] + Cc1cc(Nc2cc(N3CCN(C)CC3)nc(Sc3ccc(NC(=O)C4CC4)cc3)n2)n[nH]1 [Tozasertib] (partner 0.1 µM)
Summary of the method: as §1

GSK126 + Crizotinib = compound: CC[C@H](C)N1C=C(C2=C(C=C(C=C21)C3=CN=C(C=C3)N4CCNCC4)C(=O)NCC5=C(C=C(NC5=O)C)C)C [GSK126] + C[C@@H](Oc1cc(-c2cnn(C3CCNCC3)c2)cnc1N)c1c(Cl)ccc(F)c1Cl [Crizotinib] (partner 1 µM)
Summary of the method: as §1

GSK126 + Phenformin = compound: CC[C@H](C)N1C=C(C2=C(C=C(C=C21)C3=CN=C(C=C3)N4CCNCC4)C(=O)NCC5=C(C=C(NC5=O)C)C)C [GSK126] + N=C(N)NC(=N)NCCc1ccccc1 [Phenformin] (partner 250 µM)
Summary of the method: as §1

| Cell Line | relative viability (Carboplatin + Phenformin; first compound 0.08 µM) | relative viability (Carboplatin + Phenformin; first compound 0.253 µM) | relative viability (Carboplatin + Phenformin; first compound 0.8 µM) | relative viability (Carboplatin + Phenformin; first compound 2.53 µM) | relative viability (Carboplatin + Phenformin; first compound 8 µM) | relative viability (MLN4924 + Tozasertib; first compound 0.04 µM) | relative viability (MLN4924 + Tozasertib; first compound 0.1265 µM) | relative viability (MLN4924 + Tozasertib; first compound 0.4 µM) | relative viability (MLN4924 + Tozasertib; first compound 1.265 µM) | relative viability (MLN4924 + Tozasertib; first compound 4 µM) | relative viability (GSK126 + Crizotinib; first compound 0.08 µM) | relative viability (GSK126 + Crizotinib; first compound 0.253 µM) | relative viability (GSK126 + Crizotinib; first compound 0.8 µM) | relative viability (GSK126 + Crizotinib; first compound 2.53 µM) | relative viability (GSK126 + Crizotinib; first compound 8 µM) | relative viability (GSK126 + Phenformin; first compound 0.08 µM) | relative viability (GSK126 + Phenformin; first compound 0.253 µM) | relative viability (GSK126 + Phenformin; first compound 0.8 µM) | relative viability (GSK126 + Phenformin; first compound 2.53 µM) | relative viability (GSK126 + Phenformin; first compound 8 µM) |
| --- | --- | --- | --- | --- | --- | --- | --- | --- | --- | --- | --- | --- | --- | --- | --- | --- | --- | --- | --- | --- |
| HOP-62 | 0.713 | 0.643 | 0.628 | 0.654 | 0.548 | 0.359 | 0.198 | 0.0852 | 0.049 | 0.0903 | 0.965 | 0.996 | 0.788 | 0.726 | 0.928 | 0.672 | 0.68 | 0.672 | 0.642 | 0.68 |
| NCI-H727 | 0.504 | 0.652 | 0.454 | 0.497 | 0.365 | 0.677 | 0.462 | 0.432 | 0.335 | 0.328 | 0.923 | 0.755 | 0.806 | 0.836 | 0.815 | 0.469 | 0.622 | 0.587 | 0.624 | 0.533 |
| COR-L 105 | 0.576 | 0.418 | 0.481 | 0.411 | 0.373 | 0.343 | 0.331 | 0.323 | 0.247 | 0.241 | 0.859 | 0.935 | 0.783 | 0.687 | 0.62 | 0.5 | 0.547 | 0.596 | 0.529 | 0.513 |
| PC-3 [JPC-3] | 0.486 | 0.461 | 0.449 | 0.473 | 0.456 | 0.903 | 0.785 | 0.652 | 0.366 | 0.275 | 0.993 | 0.997 | 0.982 | 0.956 | 1.02 | 0.478 | 0.489 | 0.48 | 0.456 | 0.489 |
| NCI-H2347 | 0.36 | 0.382 | 0.583 | 0.534 | 0.324 | 0.647 | 0.546 | 0.386 | 0.283 | 0.241 | 0.706 | 0.667 | 0.658 | 0.708 | 0.559 | 0.488 | 0.444 | 0.499 | 0.352 | 0.409 |
| SW 1573 | 0.38 | 0.354 | 0.414 | 0.359 | 0.265 | 0.235 | 0.207 | 0.0978 | 0.0941 | 0.0688 | 0.868 | 0.82 | 0.751 | 0.84 | 0.785 | 0.41 | 0.4 | 0.376 | 0.439 | 0.423 |
| NCI-H838 | 0.707 | 0.587 | 0.603 | 0.601 | 0.603 | 0.275 | 0.288 | 0.204 | 0.123 | 0.118 | 0.798 | 0.856 | 0.834 | 0.772 | 0.752 | 0.652 | 0.468 | 0.522 | 0.487 | 0.555 |
| HCC-44 | 0.344 | 0.191 | 0.194 | 0.187 | 0.144 | 0.816 | 0.471 | 0.186 | 0.231 | 0.272 | 0.766 | 0.864 | 0.788 | 0.64 | 0.78 | 0.23 | 0.194 | 0.186 | 0.192 | 0.243 |
| HCC-78 | 0.829 | 0.685 | 0.641 | 0.726 | 0.744 | 0.564 | 0.458 | 0.453 | 0.172 | 0.141 | 0.306 | 0.326 | 0.318 | 0.328 | 0.374 | 0.816 | 0.773 | 0.604 | 0.646 | 0.692 |
| A-427 | 0.428 | 0.385 | 0.32 | 0.285 | 0.383 | 0.168 | 0.164 | 0.128 | 0.131 | 0.133 | 0.898 | 1.01 | 0.857 | 0.856 | 0.84 | 0.362 | 0.34 | 0.311 | 0.346 | 0.258 |
| CAL-12T | 0.56 | 0.584 | 0.591 | 0.534 | 0.557 | 0.325 | 0.365 | 0.262 | 0.237 | 0.167 | 0.805 | 0.67 | 0.699 | 0.398 | 0.441 | 0.617 | 0.568 | 0.572 | 0.519 | 0.63 |
| SK-MES-1 | 0.681 | 0.672 | 0.671 | 0.638 | 0.592 | 0.773 | 0.682 | 0.33 | 0.157 | 0.189 | 1.01 | 0.971 | 0.931 | 0.925 | 1.05 | 0.743 | 0.673 | 0.635 | 0.526 | 0.535 |
| NCI-H460 | 0.548 | 0.507 | 0.504 | 0.404 | 0.122 | 0.464 | 0.484 | 0.421 | 0.228 | 0.0266 | 1.13 | 0.929 | 0.811 | 0.9 | 0.875 | 0.587 | 0.531 | 0.523 | 0.483 | 0.468 |
| ABC-1 | 0.226 | 0.19 | 0.248 | 0.251 | 0.226 | 0.154 | 0.155 | 0.144 | 0.132 | 0.149 | 1.06 | 1.16 | 1.23 | 1.17 | 0.937 | 0.243 | 0.262 | 0.268 | 0.244 | 0.242 |
| LK-2 | 0.683 | 0.47 | 0.343 | 0.398 | 0.563 | 0.175 | 0.182 | 0.189 | 0.209 | 0.174 | 0.282 | 0.224 | 0.243 | 0.252 | 0.206 | 0.658 | 0.522 | 0.454 | 0.334 | 0.352 |
| NCI-H2085 | 0.88 | 0.741 | 0.695 | 0.737 | 0.775 | 0.855 | 0.894 | 0.827 | 0.78 | 0.48 | 0.879 | 0.966 | 0.951 | 0.778 | 0.887 | 0.871 | 0.667 | 0.677 | 0.725 | 0.732 |
